Consider nine compounds from PMC3289549 (Biochemistry, 2011).

For series [1], the target named is T1, Pin1 (Homo sapiens, UniProt Q13526). Description: α-chymotrypsin protease-coupled Pin1 inhibition assay. Type of series: biochemical. As to conditions: for IC50: protease-coupled assay, substrate succinyl–Ala–Glu–cis-Pro–Phe–pNA, 4 °C, duplicate.
The next series is described as follows: Aqueous solubility. It counts as physicochemical. As to conditions: qualitative.
For series [2], the target named is T1, Pin1. As to conditions: cited from earlier work.
Series [3] deals with T1, Pin1. As to conditions: cited from earlier work. This is another data set of the same source.

“Also recorded” adds a separate entry of the source. Like-named read-outs stand apart in the source and are kept apart here.

T1 sequence (Q13526 whole entry): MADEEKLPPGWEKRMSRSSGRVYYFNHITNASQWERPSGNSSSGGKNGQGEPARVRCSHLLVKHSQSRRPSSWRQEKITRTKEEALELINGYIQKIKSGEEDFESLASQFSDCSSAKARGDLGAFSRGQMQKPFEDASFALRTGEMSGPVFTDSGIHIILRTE

As usually defined, the IC50 is the midpoint of a concentration-inhibition curve. `CC(=O)N[C@@H](COP(=O)(O)O)CN1CCCCC1C(=O)NCCc1c[nH]c2ccccc12` (mixture of isomers) [Compound 4a, Ac–pSer–Ψ[CH2N]-(R/S)Pip ^a–tryptamine] returned an IC50 at Pin1 [1] of 16 ± 2 µM. For the same compound, the “fold more potent than diastereomer 4b” value at Pin1 [1] (ratio of IC50 values vs 4b) is recorded as “approximately 12 fold”.
Regarding `CC(=O)N[C@@H](COP(=O)(O)O)CN1CCCCC1C(=O)NCCc1c[nH]c2ccccc12` (mixture of isomers) [Compound 4b, Ac–pSer–Ψ[CH2N]-(R/S)Pip ^a–tryptamine], 189 ± 17 µM corresponded to half-maximal inhibition on Pin1 [1] (IC50).
Regarding `O=C(N[C@@H](COP(=O)(O)O)CN1CCC[C@H]1C(=O)NCCc1c[nH]c2ccccc12)OCC1c2ccccc2-c2ccccc21` [Compound 1, Fmoc–pSer–Ψ[CH2N]-Pro–tryptamine], at Pin1 [1], the midpoint of inhibition, the IC50, lay at 6.3 ± 0.4 µM. The “fold better inhibition than compound 3” value on Pin1 [1] (ratio of IC50 values vs 3) came to 5 fold. Also, in the series “Aqueous solubility”, the aqueous solubility result is on record as “very poor”.
`CC(OP(=O)(O)O)C(CN1CCCC1C(=O)NCCc1c[nH]c2ccccc12)NC(=O)OCC1c2ccccc2-c2ccccc21` (stereo not shown) [Compound 3, Fmoc–pThr–Ψ[CH2N]-Pro–tryptamine] registered an IC50 at Pin1 [1] of 30 ± 2 µM.
Consider `O=C(NC(C=C1CCCC1C(=O)NCCc1c[nH]c2ccccc12)COP(=O)(O)O)OCC1c2ccccc2-c2ccccc21` (stereo not shown) [Fmoc-pSer–Ψ[(Z)CH=C]Pro–2-(indol-3-yl)-ethylamine], for which, on Pin1 [2] (similarly substituted ground-state (cis-alkene) analogue), the IC50 is 28.3 µM.
What is called Ki is the dissociation constant of the complex between target and ligand, obtained from inhibition or displacement. As for “Ac–Lys(N-biotinoyl)–Ala–Ala–Bth–D-Thr(PO3H2)–Pip–Nal–Gln–NH2”, the Ki on Pin1 [3] is 0.00021 µM.
With “Ac–pSer–Ψ[CH2N]-Pro–tryptamine [Compound 2]”, on Pin1 [1], the IC50 stood at 12 ± 2 µM. The “fold less potent than inhibitor 1” value at Pin1 [1] (ratio of IC50 values vs 1) came out at 2 fold. The “fold better than the similarly substituted ketone” value on Pin1 [1] (ratio of IC50 values vs Ac–pSer–Ψ[COCH]-Pip–2-(indol-3-yl)-ethylamine) was 5 fold. Moreover, the “fold better than the similarly substituted α-ketoamide inhibitor” value at Pin1 [1] (ratio of IC50 values vs Ac–pSer–Ψ[COCON]-Pro–2-(naphth-2-yl)-ethylamine) amounted to 6 fold. In addition, the aqueous solubility result in the series “Aqueous solubility” is reported as “improved aqueous solubility; also recorded: improved the water solubility”.
Turning to “Ac–pSer–Ψ[COCH]-Pip–2-(indol-3-yl)-ethylamine”, the IC50 on Pin1 [2] (similarly substituted ketone) was 61 µM.
Regarding “Ac–pSer–Ψ[COCON]-Pro–2-(naphth-2-yl)-ethylamine”, on Pin1 [2] (similarly substituted α-ketoamide inhibitor), the IC50 was 100 µM.
